Tests used:
[1] = test system: Nurr1 in MN9D; assay: qPCR MN9D Nurr1; assay type: cell-based; conditions: cpds tested at 10 μM, analogs of compound 87
[2] = test system: Th in MN9D; assay: qPCR MN9D Th; assay type: cell-based; conditions: cpds tested at 10 μM, analogs of compound 87
[3] = target: T1, Nurr1 ligand binding domain (Homo sapiens, UniProt P43354); assay: Microscale thermophoresis (MST) binding assay; conditions: measured by microscale thermophoresis
Experimental: Microscale thermophoresis (MST) assays. Data were collected using the Nanotemper Monolith NT.115 at a temperature of 25° C. The MST buffer used in each experiment was 25 mM HEPES (Sigma Aldrich), pH 7.4, 150 mM NaCl (Alfa Aesar), and 0.02% Pluronic (Sigma Aldrich). All samples were prepared using Protein LoBind tubes or deepwell plates (Eppendorf). The His-tagged Nurr1 was labeled with RED-tris-NTA dye (NT-647) according to the kit's protocol (Nanotemper). Dilutions of each ligand were carried out starting from DMSO stocks of 10 mM in DMSO. The analyte solutions in DMSO were added to aliquots of MST buffer to yield a DMSO concentration of 4%.
Two types of experiments were performed: endpoint and binding affinity assays. For the endpoint assays, equal amounts of the ligand solution and labeled Nurr1 were mixed to yield the final concentrations: 50 nM Nurr1, 25 nM RED-tris-NTA dye, 2% DMSO, and either 25 μM or 100 μM of the desired ligand in the MST buffer. […]
The Monolith NT.115 settings for all samples were 40% excitation power and 40% MST power. The initial fluorescence was recorded for 3 seconds and the thermophoresis fluorescence response was recorded for 20 seconds. […] Screening Analysis software (Nanotemper) was used to normalize the fluorescent response signals to the sample's initial fluorescence. […]

[4] = test system: Nurr1 target genes in MN9D cells; assay: MN9D target gene transcription assay; assay type: cell-based; conditions: gene expression normalized to Hprt
Experimental: MN9D Assays. MN9Dtet-on cells were treated with 10 μM of each compound or DMSO (vehicle control) for 6 to 24 hrs. Total RNAs were isolated using Quick-RNA miniprep Plus (ZYMO Research, cat#: R^1058), and were subsequently reverse transcribed using High Capacity cDNA Reverse Transcription kit (Applied Biosystems, cat#: 4368814). SYBR Green quantitative real-time PCR analysis was performed using CFX96 Real Time system (BioRad). The following primer pairs were used for qPCR: Nurr1; 5′-[…]-3′ (SEQ ID NO:5) and 5′-[…]-3′ (SEQ ID NO:6), Pitx3; 5′-GCAACTGGCCGCCCAAGG-3′ (SEQ ID NO:7) and 5′-AGGCCCCACGTTGACCGA-3′ (SEQ ID NO:8), VMAT2; 5′-[…]-3′ (SEQ ID NO:9) and 5′-[…]-3′ (SEQ ID NO:10), TH; 5′-[…]-3′ (SEQ ID NO:11) and 5′-[…]-3′ (SEQ ID NO:12), HPRT; 5′-TGGGAGGCCATCACATTGT-3′ (SEQ ID NO:13) and 5′-[…]-3′ (SEQ ID NO:14). The levels of gene expression were normalized to the level of housekeeping gene (HPRT) expression.

[5] = target: T2, Nurr1 (Homo sapiens, UniProt P43354); assay: Binding MST
[6] = target: T2, Nurr1; assay: Binding SPR
[7] = test system: Vmat2 in MN9D; assay: cells; assay type: cell-based; conditions: cpds tested at 10 μM, analogs of compound 87, read-out: qPCR MN9D Vmat2
[8] = test system: TH in SHSY5Y; assay: qPCR SHSY5Y TH; assay type: cell-based; conditions: Homo sapiens, SH-SY5Y, cpds tested at 10 μM
[9] = target: T3, Nurr1 LBD (Homo sapiens, UniProt P43354); assay: Differential scanning fluorimetry (DSF); assay type: binding
Excerpt: (§1) Dopamine is broken down inside the neurons that produce it, generating oxygen free-radicals and other potentially damaging molecules (53). Among the reactive metabolites is 5,6-dihydroxyindole (DHI), a compound that undergoes spontaneous oxidation to a reactive quinone, which oligomerizes to form a polymer (neuromelanin) of unknown function. This polymer accounts for the dark appearance of nigrostriatal neurons in the normal adult CNS (54,55). Dopamine is also a central player in stress and addiction (3). It is clear that dopamine levels need to be tightly regulated in the CNS. Nurr1 controls all the genes required for dopamine synthesis, but its regulation is poorly understood as the receptor lacks both the canonical NR ligand binding pocket and the classic NR co-regulator binding surface (33). We postulated that Nurr1 might be regulated by dopamine itself, or one of its metabolites, and investigated this possibility using a combination of biophysical and structural techniques. […] Identifying stable analogs of DHI will enable more detailed studies of this intriguing biology.

[10] = target: T3, Nurr1 LBD; assay: Surface plasmon resonance (SPR) assay; assay type: binding
Experimental: Surface Plasmon Resonance Assays. Data were collected using Biacore T200 (GE) instrument at a flow rate of 30 μL/min and at a temperature of 25° C. The running buffer was 25 mM HEPES, pH 7.4, 150 mM NaCl, 0.05% Surfactant Tween 20, and 2% DMSO. The biotinylated Nurr1 LBD was immobilized on a sensor chip SA (GE Healthcare Life Sciences; product number 29104992) or at 6000-7000 RU, or a CAP chip (GE Healthcare Life Sciences; product number 28920234) at 1500-2000 RU. Data collection was performed with kinetic titration mode. Analytes dilutions were carried out starting from DMSO stocks (10 mM). Analytes dissolved in DMSO were added to 1.02x running buffer without DMSO to yield a final DMSO concentration of 2%. When using CAP chip, surface regeneration was performed between each titration curve using 6 M guanidine.HCl+0.25 M NaOH regeneration solution followed by re-immobilization of Nurr1 (as described in the manufacturer's regeneration protocol). Data processing included double referencing (i.e., reference flow cell and buffer subtracted using a buffer injection of appropriate contact time for the given injection). Solvent correction was performed using a standard curve in a range of 1.8-2.3% DMSO.

[11] = target: T4, Nurr1 LBD fused to Gal4 DBD (Homo sapiens, UniProt P43354); assay: Luciferase reporter assay; assay type: cell-based
T4 construct: expressed in transfected cells; host or cells: SK-N-BE(2)C cells (ATCC CRL-2268)
Experimental: In particular, direct binding to the Nurr1 LBD in vitro was measured using microscale thermophoresis (MST) and surface plasmon resonance (SPR), and efficacy in cells was measured using a lucifierase reporter assay (Nurr1 LBD fused to Gal4 DBD, measuring effect on luciferase activity) and target gene transcription assays (full length Nurr1, measuring mRNA levels of specific Nurr1 target genes). These assays pointed to a subset of compounds that bind directly to the Nurr1 LBD (by MST and/or SPR) and produce >1.5-fold changes in Nurr1 activity in cells (by Luc and/or TGT assays) (Table 1, Table 2).
Luciferase Reporter Assays. pBIND—Nurr1 is generated by cloning Nurr1 LBD (a.a. 328-598 of human Nurr1) into pBIND vector (Promega E2440). The pBIND vector also contains a Renilla luciferase gene under the control of the SV40 Promoter that can be used to normalize the transfection efficiency. The firefly luciferase reporter pG5-Luc vector (Promega E2440) contains 5 repeats of GAL4 UAS (upstream activation sequence) upstream of luciferase gene. SK—N— BE(2)C cells (ATCC CRL-2268) were transiently transfected with pBIND—Nurr1 and pG5-Luc by FuGENE HD (Promega, E2311) in 96-well-plate with the seeding density of 200,000 cells/mL. […] After 18 hours, the luminescence of Firefly and Renilla luciferase were measured by Dual Luciferase Reporter Assay System (Promega E1960).

[12] = test system: Nurr1 target genes; assay: Transcription of Nurr1 target genes in live zebrafish; assay type: in vivo
Excerpt: as §1

[13] = target: T1, Nurr1 ligand binding domain; assay: Crystal structures of ligands covalently bound to Nurr1; conditions: crystal structure, Cys566
Excerpt: First, we used the Nurr1 ligand binding domain (LBD) and a disulfide-trapping screen to identify 50 compounds that conjugate directly to Nurr1, undergoing a disulfide exchange reaction with Cys566.

[14] = test system: Pitx3 in MN9D; assay: qPCR MN9D Pitx3; assay type: cell-based; conditions: cpds tested at 10 μM, analogs of compound 87

T3 sequence (P43354 360-595 limits assumed): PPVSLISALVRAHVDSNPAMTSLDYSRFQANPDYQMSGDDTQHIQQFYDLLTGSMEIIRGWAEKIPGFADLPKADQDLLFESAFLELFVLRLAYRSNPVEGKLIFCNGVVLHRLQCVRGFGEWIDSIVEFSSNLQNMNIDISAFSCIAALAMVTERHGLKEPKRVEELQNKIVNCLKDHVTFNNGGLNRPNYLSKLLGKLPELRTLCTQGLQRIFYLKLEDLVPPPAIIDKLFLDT
T1 sequence (P43354 360-595 limits assumed): as above
T2 sequence (P43354 360-595 limits assumed): as above
T4 sequence (P43354 328-598): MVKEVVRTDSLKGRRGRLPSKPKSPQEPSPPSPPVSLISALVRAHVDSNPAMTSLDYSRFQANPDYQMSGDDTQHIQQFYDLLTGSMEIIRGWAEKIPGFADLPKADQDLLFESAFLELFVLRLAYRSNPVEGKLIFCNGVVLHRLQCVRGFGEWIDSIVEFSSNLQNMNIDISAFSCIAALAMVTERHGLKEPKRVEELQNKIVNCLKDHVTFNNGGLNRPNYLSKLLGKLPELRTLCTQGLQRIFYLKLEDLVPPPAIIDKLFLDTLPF

Question: How did the fold induction at 10 µM [1] turn out when `CC(=O)SCCn1cc(C(C)(C)NC(=O)c2cccc(C#N)c2)nn1` [SP 196, S-2-(4-(2-(3-cyanobenzamido)propan-2-yl)-1H-1,2,3-triazol-1-yl)ethyl ethanethioate] was run?
Answer: > 4

Question: What about the fold induction at 10 µM [2] of the same molecule?
Answer: > 1.5

Question: Which results are given for `CC(C)(NC(=O)c1cc(Cl)cc(Cl)c1)c1cn(CCS)nn1` [SP 87, 3,5-dichloro-N-(2-(1-(2-mercaptoethyl)-1H-1,2,3-triazol-4-yl)propan-2-yl)benzamide]?
Answer: Binding to the Nurr1 ligand binding domain, affinity [3]: high nanomolar affinity; Transcription of Nurr1 target genes in MN9D cells [4]: stimulate the transcription of Nurr1 target genes; Binding MST ([5]; analogs of compound 87): +++; Binding SPR ([6]; analogs of compound 87): +; fold induction at 10 µM [7]: > 4; fold induction at 10 µM [8]: > 1.5

Question: Which “Stabilization of the Nurr1 LBD, melting temperature” value [9] does the source give for `NCCc1ccc(O)c(O)c1` [dopamine] here?
Answer: not

Question: Which results are given for `Oc1cc2cc[nH]c2cc1O` [DHI, 5,6-dihydroxyindole]?
Answer: Off-rate [10]: very slow off-rate; Kd ([10]; read-out: Kd for binding to Nurr1): 5 µM; Nurr1 activity in the reporter assay [11]: stimulating Nurr1 activity; Stabilization of the Nurr1 LBD, melting temperature [9]: increasing the melting temperature by one degree; Expression of VMAT ([12]; acute exposure (6 h, data not shown)): drives the expression; Transcription of Nurr1 target genes in live zebrafish ([12]; in vivo): driving transcription of Nurr1 target genes; Expression of TH ([12]; longer exposure (24 h)): drives the expression; Covalent binding to Nurr1 [13]: reversible covalent adduct with Cys566

Question: How did the “Binding to the Nurr1 ligand binding domain, affinity” value [3] turn out when `O=C(COc1ccc(Cl)c(Cl)c1)NCCS` [SP 85, 2-(3,4-dichlorophenoxy)-N-(2-mercaptoethyl)acetamide] was run?
Answer: high nanomolar affinity

Question: What about the “Transcription of Nurr1 target genes in MN9D cells” value [4] of the same molecule?
Answer: stimulate the transcription of Nurr1 target genes

Question: And the “Binding MST” value ([5]; analogs of compound 85)?
Answer: +++

Question: And the “Binding SPR” value ([6]; analogs of compound 85)?
Answer: +

Question: For `CC(=O)SCCn1cc(C(C)(C)NC(=O)c2ccc(Cl)c(Cl)c2)nn1` [SP 171, S-2-(4-(2-(3,4-dichlorobenzamido)propan-2-yl)-1H-1,2,3-triazol-1-yl)ethyl ethanethioate], which fold induction at 10 µM [14] is on record?
Answer: > 4

Question: With `CC(=O)SCCn1cc(C(C)(C)NC(=O)c2ccc3ocnc3c2)nn1` [SP 195, S-2-(4-(2-(benzo[d]oxazole-5-carboxamido)propan-2-yl)-1H-1,2,3-triazol-1-yl)ethyl ethanethioate] as the molecule, how does the fold induction at 10 µM [14] read?
Answer: > 1.5

Question: And the fold induction at 10 µM [1]?
Answer: > 1.5

Reference: US20230063230A1, “NURR1 RECEPTOR MODULATORS” (priority 2019, published 2023)
